# Measurements taken from EP1582583A2 (priority 2000, dated 2001).
# Key:
# E. indica glypS EPSPS = molecular target: T1, E. indica glypS EPSPS (Eleusine indica, UniProt Q95AK0); test: enzyme kinetics, Km(PEP) and Ki (glyphosate); format: biochemical; conditions: apparent Km, saturating S3P
# T1 sequence (Q95AK0 1-445): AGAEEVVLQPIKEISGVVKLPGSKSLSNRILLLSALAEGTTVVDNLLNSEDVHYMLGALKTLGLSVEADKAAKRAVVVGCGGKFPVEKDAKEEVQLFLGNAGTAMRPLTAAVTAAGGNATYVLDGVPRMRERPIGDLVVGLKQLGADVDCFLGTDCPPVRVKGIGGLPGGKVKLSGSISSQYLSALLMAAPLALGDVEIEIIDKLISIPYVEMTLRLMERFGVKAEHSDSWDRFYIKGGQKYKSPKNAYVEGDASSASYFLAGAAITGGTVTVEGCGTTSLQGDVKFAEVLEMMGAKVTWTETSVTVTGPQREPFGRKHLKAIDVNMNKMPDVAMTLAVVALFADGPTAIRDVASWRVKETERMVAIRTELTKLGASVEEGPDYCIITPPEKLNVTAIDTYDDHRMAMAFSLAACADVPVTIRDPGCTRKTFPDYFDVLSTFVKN
# Description: Calculations, graphical representation, and statistical analysis of enzyme kinetic data are performed using GraFit version 3.0 software (Erithacus Software Ltd., Staines, U.K.).
# [1] = test system: E. coli SR481 cells transformed with pMON45364 (Ei.EPSPS:glypR); test: growth rates of transgenic E. coli on glyphosate containing media; format: cell-based; conditions: growth (O.D.595) in minimal M9 media with 0.0, 0.5, 1.5 or 5.0 mM glyphosate; cells expressing EPSPS of tolerant biotype (pMON45364) versus sensitive biotype (pMON45365); Figure 3
# Description: The EPSP synthase mature protein-coding regions isolated from the glyphosate tolerant and glyphosate sensitive E. indica biotypes, can be directly compared for their ability to confer tolerance to glyphosate in transgenic hosts. […] This was inserted by ligation to facilitate expression and cloning at the ATG start codon of an open reading frame.
# These sequences are employed in RT-PCR reactions to generate expression cassettes suitable for cloning into pMON45337 cut with the restriction enzymes Nde1 and EcoR1. RT-PCR reactions are performed with total RNAs extracted from frozen crown samples using the RNeasy Plant Mini Kit (cat.# 74904, Qiagen Inc., Valencia, CA) per manufacturer's instructions. Oligo·dT-primed first-strand cDNAs are prepared from 5 µg samples of total RNA using the Superscript Pre-Amplification System (cat.# 18089-011, Life Technologies, Rockville, MD) per manufacturer's instructions. Two µl of first-strand cDNA are then used to generate E. indica EPSP synthase expression cassettes via polymerase chain reaction. The oligonucleotides are added in 50 µl RT-PCR reactions at a final concentration of 0.4 µM. […]
# [2] = molecular target: EPSPS activity in extracts from the glyphosate tolerant E. indica biotype (Eleusine indica, UniProt Q95AK1); conditions: read-out: I50 (glyphosate); tolerant biotype plant extract; 0.5 mM PEP, 1 mM shikimate-3-phosphate, 25°C; Figure 4
# Sequence of EPSPS activity in extracts from the glyphosate tolerant E. indica biotype (Q95AK1 entry or part of it): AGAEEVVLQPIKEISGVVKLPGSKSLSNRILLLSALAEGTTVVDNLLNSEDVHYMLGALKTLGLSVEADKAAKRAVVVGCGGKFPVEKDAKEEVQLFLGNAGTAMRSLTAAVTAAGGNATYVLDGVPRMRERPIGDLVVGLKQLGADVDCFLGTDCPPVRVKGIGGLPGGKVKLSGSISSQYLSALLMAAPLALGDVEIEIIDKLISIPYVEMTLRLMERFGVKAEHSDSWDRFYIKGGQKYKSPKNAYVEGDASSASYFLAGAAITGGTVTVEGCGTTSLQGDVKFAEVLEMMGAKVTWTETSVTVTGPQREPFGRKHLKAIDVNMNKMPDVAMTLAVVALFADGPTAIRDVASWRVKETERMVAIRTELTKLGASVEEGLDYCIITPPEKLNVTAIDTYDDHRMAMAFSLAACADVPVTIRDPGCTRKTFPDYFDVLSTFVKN
# Description: Preparation of extracts and radiometric EPSP synthase assays are performed using methods adapted from published procedures (Padgette et al., J. Biol. Chem. 266:22364-22369 (1991). Crown regions are dissected from whole plants, pulverized under liquid nitrogen with a mortar and pestle, then stored at -80°C prior to extraction. Homogenates are prepared from 0.5 g tissue per sample in 25 ml extraction buffer (100 mM TrisCl, 10 % glycerol, 1 mM EDTA, 1 mM benzamidine, 1 mM dithiothreitol, 1 mM 4-(2-aminoethyl)-benzenesulfonyl floride HCl, 0.1 mM leupeptin, pH 7.4) at 4°C using a model PT3000 Polytron homogenizer (Brinkman Instuments Inc., Westbury, NY). Debris is removed by 0.2 µm filtration, then the resulting supernatant is concentrated and desalted using an Ultrafree-15 centrifugal filtration unit (cat.# UFV2-BGC-10, Millipore Corp., Bedford, MA). Final sample volumes are approximately 0.5 ml. Protein concentrations are determined spectrophotometrically using the Bio-Rad protein assay reagent (cat.#500-0006, Bio-Rad Laboratories, Hercules, CA). EPSPS specific activities are determined by assaying 10 µl extract at 25°C for 5- 15 min. […] Reactions are quenched with the addition of 50 µl 9:1 ethanol: 0.1 M acetic acid. […]
# [3] = molecular target: native EPSPS from E. coli (Escherichia coli, UniProt P0A6D3); conditions: read-out: apparent Ki for glyphosate; cited from earlier work
# Sequence of native EPSPS from E. coli (P0A6D3 whole entry): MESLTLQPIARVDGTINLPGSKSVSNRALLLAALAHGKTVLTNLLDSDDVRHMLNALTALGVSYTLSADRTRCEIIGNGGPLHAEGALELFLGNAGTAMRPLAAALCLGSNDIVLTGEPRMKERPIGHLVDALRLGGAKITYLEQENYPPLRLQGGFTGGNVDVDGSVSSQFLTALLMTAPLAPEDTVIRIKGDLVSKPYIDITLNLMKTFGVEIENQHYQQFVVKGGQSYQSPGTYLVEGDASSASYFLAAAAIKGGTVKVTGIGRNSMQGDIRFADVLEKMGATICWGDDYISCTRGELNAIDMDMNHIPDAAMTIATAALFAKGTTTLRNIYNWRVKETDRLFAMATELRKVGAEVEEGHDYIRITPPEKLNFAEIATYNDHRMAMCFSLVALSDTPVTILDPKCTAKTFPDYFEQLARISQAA
Structure (SMILES),KmPEP (E. indica glypS EPSPS) [M],increase in tolerance to glyphosate [1],IC50 [2] [µM],Ki [3] [µM]
"C=C(OP(=O)(O)O)C(=O)O [PEP, phosphoenolpyruvate]",5,,,
"O=C(O)CNCP(=O)(O)O [glyphosate, N-phosphonomethylglycine]",,approximately three-fold,~16,0.5
